{"source": "paper PMC11649115", "about": "“In vitro safety evaluation of dopamine D3R antagonist, R-VK4-116, as a potential medication for the treatment of opioid use disorder” (PLOS ONE, 2024)", "key": {"CYP2D6": {"biological_target": "CYP2D6 (Homo sapiens, UniProt P10635)", "sequence (P10635 whole entry, canonical isoform)": "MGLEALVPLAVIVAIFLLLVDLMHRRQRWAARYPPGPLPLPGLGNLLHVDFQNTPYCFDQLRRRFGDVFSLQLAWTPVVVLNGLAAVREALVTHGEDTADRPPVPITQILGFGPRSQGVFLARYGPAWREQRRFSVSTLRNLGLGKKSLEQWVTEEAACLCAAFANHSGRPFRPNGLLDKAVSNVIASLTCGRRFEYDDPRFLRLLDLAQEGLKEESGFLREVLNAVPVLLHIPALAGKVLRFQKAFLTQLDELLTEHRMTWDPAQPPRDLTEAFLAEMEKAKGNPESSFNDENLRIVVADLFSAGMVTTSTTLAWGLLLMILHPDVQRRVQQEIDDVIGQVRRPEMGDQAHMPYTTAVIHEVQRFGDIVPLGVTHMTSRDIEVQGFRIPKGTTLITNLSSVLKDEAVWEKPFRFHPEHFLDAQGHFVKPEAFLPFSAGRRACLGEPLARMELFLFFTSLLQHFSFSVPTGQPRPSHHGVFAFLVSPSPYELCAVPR", "assay": "CYP phenotyping, recombinant CYP", "assay_type": "in vitro ADME", "set-up": "purchased XenoTech, LLC, Kansas City, KS; host or cells: bactosomes (bacterial membranes)", "settings": "recombinant CYP2D6, pH 7.4, incubated with CYP2D6, 1 μM, 120 min", "experimental": "(§1) CYP phenotyping involved the identification of CYP isoforms, which involved in the metabolism of R-VK4-116 using recombinant CYP1A2, CYP2B6, CYP2C8, CYP2C9, CYP2C19, CYP2D6, and CYP3A4 (XenoTech, LLC, Kansas City, KS), followed by determination of the Km and Vmax for the metabolites formed by the major CYP isoforms. […] In addition, R-VK4-116 was also incubated with all components in the absence of NADPH. […] Following brief vortexing and centrifugation, 50 μl of supernatant was mixed with 450 μl of 25:75:0.2 acetonitrile/water/formic acid for analysis by LC-MS/MS to determine the remaining R-VK4-116 at each time point based on peak area ratio (PAR) of R-VK4-116 to IS. As a positive control, the known substrate of each individual CYP isoform (phenacetin for CYP1A2, bupropion for CYP2B6, paclitaxel for CYP2C8, diclofenac for CYP2C9, diazepam for CYP2C19, bufuralol for CYP2D6, and testosterone for CYP3A4) was also incubated."}, "CYP3A4": {"biological_target": "CYP3A4 (Homo sapiens, UniProt P08684)", "sequence (P08684 whole entry)": "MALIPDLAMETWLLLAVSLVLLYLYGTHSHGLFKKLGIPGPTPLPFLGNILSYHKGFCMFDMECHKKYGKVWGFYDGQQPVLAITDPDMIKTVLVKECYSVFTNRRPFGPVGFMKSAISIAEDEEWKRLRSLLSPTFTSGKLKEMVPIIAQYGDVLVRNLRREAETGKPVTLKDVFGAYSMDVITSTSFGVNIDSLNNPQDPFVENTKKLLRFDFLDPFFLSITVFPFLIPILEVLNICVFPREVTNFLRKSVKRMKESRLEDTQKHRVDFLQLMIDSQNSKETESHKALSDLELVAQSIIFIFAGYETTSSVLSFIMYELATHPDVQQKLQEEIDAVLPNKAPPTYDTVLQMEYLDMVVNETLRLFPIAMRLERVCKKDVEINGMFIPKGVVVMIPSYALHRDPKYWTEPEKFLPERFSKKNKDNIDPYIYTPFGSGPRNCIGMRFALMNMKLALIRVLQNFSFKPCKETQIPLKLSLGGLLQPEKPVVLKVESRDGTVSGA", "assay": "CYP phenotyping, recombinant CYP", "assay_type": "in vitro ADME", "set-up": "purchased XenoTech, LLC, Kansas City, KS; host or cells: bactosomes (bacterial membranes)", "settings": "recombinant CYP3A4, pH 7.4, incubated with CYP3A4, 1 μM, 120 min", "experimental": "as §1"}, "[1]": {"tested_on": "CYP1A2, CYP2B6, CYP2C8, CYP2C9, CYP2C19", "assay": "CYP phenotyping, other recombinant CYP isoforms", "assay_type": "in vitro ADME", "settings": "1 μM, up to 120 min", "experimental": "as §1"}, "[2]": {"assay": "Metabolic stability in liver microsomes", "settings": "monkey, pH 7.4"}, "OAT3": {"biological_target": "T1, OAT3 (Homo sapiens, UniProt Q8TCC7)", "T1 construct": "expressed in transfected cells; host or cells: MDCK-II cells", "T1 sequence (Q8TCC7 1-542)": "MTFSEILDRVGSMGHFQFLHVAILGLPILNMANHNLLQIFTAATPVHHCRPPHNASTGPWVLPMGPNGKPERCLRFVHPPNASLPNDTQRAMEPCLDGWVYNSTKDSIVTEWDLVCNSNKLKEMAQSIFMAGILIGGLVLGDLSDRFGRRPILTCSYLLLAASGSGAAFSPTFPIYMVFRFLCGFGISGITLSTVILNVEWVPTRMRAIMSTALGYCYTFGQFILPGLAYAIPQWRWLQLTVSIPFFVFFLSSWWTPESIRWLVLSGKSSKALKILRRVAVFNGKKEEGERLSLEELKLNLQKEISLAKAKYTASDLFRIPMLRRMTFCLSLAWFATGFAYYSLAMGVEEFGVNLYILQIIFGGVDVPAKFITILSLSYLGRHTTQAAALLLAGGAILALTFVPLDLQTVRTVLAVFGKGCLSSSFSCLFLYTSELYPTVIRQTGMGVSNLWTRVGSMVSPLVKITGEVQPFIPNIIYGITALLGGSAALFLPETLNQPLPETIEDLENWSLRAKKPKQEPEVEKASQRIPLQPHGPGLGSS", "assay": "Transporter mediated assay (substrate/inhibitor), MDCK-II cells", "assay_type": "in vitro ADME", "protocol": "The MDCK-II cells were treated to express the transporter of interest. The transport of each probe substrate was determined by radiometric detection (Fig 1 in S1 File). […] For the uptake assay, the net transporter-mediated uptake-rate (V) of the substrate by each SLC transporter was calculated as follows: Transporter–mediatedupdaterate(pmol/min/cm^2)=(Cellularaccumulationincellsexpressingthetransporter)−(Meancellularaccumulationincontrolcells)/Surfacearea×incubationtime\nFold of activity and percent inhibition were determined as follows: Foldofactivity=(Meanuptakerate)transporterexpressingcells/(Meanuptakerate)controlcells Percentinhibition=100−100×(Transport‐mediatedupdaterate)withinhibitor/(Transport‐mediatedupdaterate)vehiclecontrol"}, "HepG2 cells": {"tested_on": "HepG2 cells", "assay": "Mitochondrial toxicity (MT) assay panel", "assay_type": "cell-based", "experimental": "The assay results were presented as % cell viability. […] After each incubation, the cells were harvested and lysed to test the MT assay panel. The Zalcitabine (positive control) was also included in this assay (Fig 3 in S1 File). The levels of Mitochondrial Oxidative Phosphorylation (OXPHOS) complex 1 (NADH dehydrogenase; ab178011, lot #GR 3339973–1), complex 3 (CytC reductase; ab124537, lot #GR3276896-3), complex 4 (CytC Oxidase; ab179880, lot #GR3273194-1), and complex 5 (ATP synthase; ab124539, lot #GR3267780-4) in the cell lysates were determined using respective indirect ELISA as per manufacturer’s instructions. The total ATP content of the cell lysates was determined using an ATP assay kit (ab83355, lot #GR3314128-2, Abcam, Cambridge, MA). The Caspase 3 content of the cell lysates was determined using the Caspase-3 assay kit (ab39401, lot #GR3322733-1, Abcam, Cambridge, MA). In addition, the total glutathione content was determined using the total glutathione (GSSG/GSH) assay kit (STA-312, lot #09100263, Oxiselect™, San Diego, CA). Using an Oxiselect™ ROS/RNS assay kit (STA-347, lot #7081343, Cell Biolabs Inc. San Diego, CA), the ROS/RNS content of the cell lysates was determined by fluorescence assay."}, "[3]": {"assay": "Metabolic stability in liver microsomes", "settings": "dog, pH 7.4"}, "dog hepatocytes": {"tested_on": "dog hepatocytes", "assay": "Metabolic stability in hepatocyte", "settings": "dog hepatocytes", "protocol": "CYP3A4 substrate Midazolam (10 μM) was prepared and incubated in the same manner. […] In addition, in vitro half-life (t1/2, min) and intrinsic clearance (CLint, μl/min/10^6 cells) were calculated [10, 11]."}, "[4]": {"settings": "heat-inactivated liver microsomes"}, "[5]": {"settings": "HepG2, 0.1, 1 and 10 μM, 7- and 14-day"}}}
{"molecule": "CCc1cc(Cl)c(OC)c(N2CCN(CC(O)CCNC(=O)c3cc4ccccc4[nH]3)CC2)c1", "note": "(centres unmarked) [R-VK4-116, N-(4-(4-(3-chloro-5-ethyl-2-methoxyphenyl)piperazin-1-yl)-3-hydroxybutyl)-1H-indole-2-carboxamide]", "values": [{"measurement": "remaining at 2 h, 1 μM", "setting": "CYP2D6", "result": 40.6, "unit": "%"}, {"measurement": "remaining at 2 h, 1 μM", "setting": "CYP3A4", "result": 25.6, "unit": "%"}, {"measurement": "metabolism by other CYP isoforms", "setting": "[1]", "result": "Minimal to no metabolism"}, {"measurement": "remaining at 0 h, 1 μM", "setting": "[2]; [4]", "result": 100, "unit": "%"}, {"measurement": "remaining at 0 h, 10 μM", "setting": "[2]; [4]", "result": 100, "unit": "%"}, {"measurement": "remaining at 2 h, 1 μM", "setting": "[2]; [4]", "result": 90, "unit": "%"}, {"measurement": "remaining at 2 h, 10 μM", "setting": "[2]; [4]", "result": 89.9, "unit": "%"}, {"measurement": "remaining at 0 h, 1 μM", "setting": "[2]; liver microsomes", "result": 100, "unit": "%"}, {"measurement": "remaining at 0 h, 10 μM", "setting": "[2]; liver microsomes", "result": 100, "unit": "%"}, {"measurement": "remaining at 0.5 h, 1 μM", "setting": "[2]; liver microsomes", "result": 32, "unit": "%"}, {"measurement": "remaining at 0.5 h, 10 μM", "setting": "[2]; liver microsomes", "result": 60.1, "unit": "%"}, {"measurement": "remaining at 1 h, 1 μM", "setting": "[2]; liver microsomes", "result": 21.2, "unit": "%"}, {"measurement": "remaining at 1 h, 10 μM", "setting": "[2]; liver microsomes", "result": 46.5, "unit": "%"}, {"measurement": "remaining at 1.5 h, 1 μM", "setting": "[2]; liver microsomes", "result": 17.5, "unit": "%"}, {"measurement": "remaining at 1.5 h, 10 μM", "setting": "[2]; liver microsomes", "result": 42.1, "unit": "%"}, {"measurement": "remaining at 2 h, 1 μM", "setting": "[2]; liver microsomes", "result": 15, "unit": "%"}, {"measurement": "remaining at 2 h, 10 μM", "setting": "[2]; liver microsomes", "result": 39.7, "unit": "%"}, {"measurement": "fold difference in mean uptake rate (substrate test)", "setting": "OAT3; OAT3, 1 μM, transporter cells vs control cells", "result": "< 2", "unit": "fold"}, {"measurement": "Inhibition (%)", "setting": "OAT3; OAT3, 0.1% BSA, 10 μM", "result": "no statistically significant inhibition"}, {"measurement": "inhibition at 10 µM", "setting": "OAT3; human, polarized monolayer of MDCK-II cells expressing OAT3, OAT3, 0.1% BSA, 10 μM", "result": "-5.73 ± 8.06", "unit": "%"}, {"measurement": "OXPHOS complex 1, 3, 4, and 5 or total ATP levels", "setting": "HepG2 cells; [5]", "result": "No significant decrease"}, {"measurement": "caspase 3, or total glutathione levels", "setting": "HepG2 cells; [5]", "result": "no significant increase"}, {"measurement": "increase in ROS/RNS levels compared with the solvent control", "setting": "HepG2 cells; HepG2, 7-days, all three concentrations (0.1, 1, 10 μM)", "result": "10–35%"}, {"measurement": "remaining at 0 h, 1 μM", "setting": "[3]; [4]", "result": 100, "unit": "%"}, {"measurement": "remaining at 0 h, 10 μM", "setting": "[3]; [4]", "result": 100, "unit": "%"}, {"measurement": "remaining at 2 h, 1 μM", "setting": "[3]; [4]", "result": 90.7, "unit": "%"}, {"measurement": "remaining at 2 h, 10 μM", "setting": "[3]; [4]", "result": 90.6, "unit": "%"}, {"measurement": "remaining at 0 h, 1 μM", "setting": "[3]; liver microsomes", "result": 100, "unit": "%"}, {"measurement": "remaining at 0 h, 10 μM", "setting": "[3]; liver microsomes", "result": 100, "unit": "%"}, {"measurement": "remaining at 0.5 h, 1 μM", "setting": "[3]; liver microsomes", "result": 44.6, "unit": "%"}, {"measurement": "remaining at 0.5 h, 10 μM", "setting": "[3]; liver microsomes", "result": 74.3, "unit": "%"}, {"measurement": "remaining at 1 h, 1 μM", "setting": "[3]; liver microsomes", "result": 22.5, "unit": "%"}, {"measurement": "remaining at 1 h, 10 μM", "setting": "[3]; liver microsomes", "result": 64.5, "unit": "%"}, {"measurement": "remaining at 1.5 h, 1 μM", "setting": "[3]; liver microsomes", "result": 22.3, "unit": "%"}, {"measurement": "remaining at 1.5 h, 10 μM", "setting": "[3]; liver microsomes", "result": 55.6, "unit": "%"}, {"measurement": "remaining at 2 h, 1 μM", "setting": "[3]; liver microsomes", "result": 19.7, "unit": "%"}, {"measurement": "remaining at 2 h, 10 μM", "setting": "[3]; liver microsomes", "result": 49.9, "unit": "%"}, {"measurement": "% remaining Vs T = 0 min", "setting": "dog hepatocytes; 0.5 μM, 0 min", "result": 100.0, "unit": "%"}, {"measurement": "% remaining Vs T = 0 min", "setting": "dog hepatocytes; 0.5 μM, 30 min", "result": 71.2, "unit": "%"}, {"measurement": "% remaining Vs T = 0 min", "setting": "dog hepatocytes; 0.5 μM, 60 min", "result": 61.2, "unit": "%"}, {"measurement": "% remaining Vs T = 0 min", "setting": "dog hepatocytes; 0.5 μM, 90 min", "result": 45.4, "unit": "%"}, {"measurement": "% remaining Vs T = 0 min", "setting": "dog hepatocytes; 0.5 μM, 120 min", "result": 40.1, "unit": "%"}, {"measurement": "% remaining Vs T = 0 min", "setting": "dog hepatocytes; 10 μM, 0 min", "result": 100.0, "unit": "%"}, {"measurement": "% remaining Vs T = 0 min", "setting": "dog hepatocytes; 10 μM, 30 min", "result": 85.3, "unit": "%"}, {"measurement": "% remaining Vs T = 0 min", "setting": "dog hepatocytes; 10 μM, 60 min", "result": 85.5, "unit": "%"}, {"measurement": "% remaining Vs T = 0 min", "setting": "dog hepatocytes; 10 μM, 90 min", "result": 80.3, "unit": "%"}, {"measurement": "% remaining Vs T = 0 min", "setting": "dog hepatocytes; 10 μM, 120 min", "result": 76.4, "unit": "%"}]}
